Test results from article PMC10786919, “Design-rules for stapled peptides with in vivo activity and their application to Mdm2/X antagonists” (Nature Communications, 2024).
pEC50: −log10 of the molar value. In brackets after ≈: the same amount, converted by molar mass. Where two headings read alike, the source gives them in different places. Positions of bridges follow the written chain, without caps; N, C: chain ends. Non-standard residues stand in square brackets, D forms with d. Residues, ends and D or L forms follow the SMILES beside them. Trp(6-Cl) = N[C@@H](Cc1c[nH]c2cc(Cl)ccc12)C(=O)O; Lys(N3) = [N-]=[N+]=NCCCC[C@H](N)C(=O)O; hArg = N=C(N)NCCCC[C@H](N)C(=O)O; R8 = C=CCCCCCC[C@@](C)(N)C(=O)O; Cba = N[C@@H](CC1CCC1)C(=O)O; S5 = C=CCCC[C@](C)(N)C(=O)O; βAla = NCCC(=O)O; Sar = CNCC(=O)O

What was measured:
[1] = Experimental LogD (partition coefficient); settings: for logD: not stated, Partition Coeff LogD
[2] = physchem
[3] = Solubility assay (kinetic solubility, PBS pH 7); format: physicochemical; settings: pH 7, PBS; for solubility kinetic: pH 7, aqueous buffer, kinetic from dmso stock, read-out: Solubility
Method in brief: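 Quantitation uses an external standard at 100 µM, prepared from 10 mM stock in acetonitrile:methanol:DMSO (10:80:10). Solubility (µM) = (peak area of sample ÷ peak area of standard) × standard concentration.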

[4] = in vitro
Method in brief: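 Azido-peptide permeability was read as loss of NanoBRET signal (donor 450 nm, acceptor 610 nm) after adding NanoBret618-azide at 10 μM final.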

[5] = Lactate dehydrogenase (LDH) release assay; format: cell-based
Method in brief: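 Geometric means of at least three independent biological runs are given for LDH release measured in HCT116 cells stably expressing a p53-driven β-lactamase reporter. Plating density was 8000 cells/well; DMSO in wells was 0.5%.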

[6] = Nanoclick permeability assay EC50
[7] = 0% FBS 4Hr, read-out: LDH: Cytotoxicity assay: EC50
[8] = 4 hours, 0% serum, read-out: LDH Cytotoxicity assay EC50

| SMILES | logD [1] | EPSA [2] [A^2] | solubility kinetic [3] [µM] | cell entry EC50 [4, 6] [nM] | pEC50 ([5]; LDH: Cytotoxicity assay: EC50) | cell entry EC50 [4] [nM] | pEC50 [5, 7] | pEC50 [5, 8] | Partition Coeff LogD [1] | Solubility [3] |
| --- | --- | --- | --- | --- | --- | --- | --- | --- | --- | --- |
| CC(=O)N[C@@H](CCCCN=[N+]=[N-])C(=O)NCCC(=O)N[C@@H](CC(C)C)C(=O)N[C@H](C(=O)N[C@@H](Cc1ccccc1)C(=O)N[C@]1(C)CCCCCCC=CCCC[C@@](C)(C(=O)N[C@@H](CO)C(=O)N[C@@H](C)C(=O)N[C@@H](C)C(N)=O)NC(=O)[C@H](CC2CCC2)NC(=O)[C@@H](C)NC(=O)[C@H](C)NC(=O)[C@H](Cc2c[nH]c3ccccc23)NC(=O)[C@H](Cc2ccc(O)cc2)NC(=O)[C@H](CCC(=O)O)NC1=O)[C@@H](C)O [MP-474] (Ac-[Lys(N3)][βAla]LTF[R8]EYWA[dA][Cba][S5]SAA-NH2; staple 6-13) | 3.07 | 222 | 156 (≈ 298 µg/mL) | 148 | < 4.30 | – | – | – | – | – |
| CC(=O)N(C)CC(=O)N[C@@H](CCCCN=[N+]=[N-])C(=O)NCCC(=O)N[C@@H](C)C(=O)N[C@H](C(=O)N[C@@H](Cc1ccccc1)C(=O)N[C@]1(C)CCCCCCC=CCCC[C@@](C)(C(=O)N[C@@H](C)C(=O)N[C@@H](C)C(=O)N[C@@H](C)C(N)=O)NC(=O)[C@H](CC2CCC2)NC(=O)[C@H](C)NC(=O)[C@H](C)NC(=O)[C@H](Cc2c[nH]c3ccccc23)NC(=O)[C@H](Cc2ccc(O)cc2)NC(=O)[C@H](C)NC1=O)[C@@H](C)O [MP-895] (Ac-[Sar][Lys(N3)][βAla]ATF[R8]AYWAA[Cba][S5]AAA-NH2; staple 7-14) | 3.46 | 184 | 2 (≈ 3.74 µg/mL) | 197 | < 4.30 | – | – | – | – | – |
| CC(=O)N[C@@H](CCCCN=[N+]=[N-])C(=O)NCCC(=O)N[C@H](CC(C)C)C(=O)N[C@H](C(=O)N[C@@H](Cc1ccccc1)C(=O)N[C@]1(C)CCCCCCC=CCCC[C@@](C)(C(=O)N[C@@H](CO)C(=O)N[C@H](C)C(=O)N[C@@H](C)C(N)=O)NC(=O)[C@H](CC2CCC2)NC(=O)[C@H](C)NC(=O)[C@H](C)NC(=O)[C@H](Cc2c[nH]c3cc(Cl)ccc23)NC(=O)[C@H](Cc2ccc(O)cc2)NC(=O)[C@H](C)NC1=O)[C@@H](C)O [MP-493] (Ac-[Lys(N3)][βAla][dL]TF[R8]AY[Trp(6-Cl)]AA[Cba][S5]S[dA]A-NH2; staple 6-13) | 3.93 | 187 | < 1 | 84.5 | < 4.30 | – | – | – | – | – |
| CC(=O)N[C@@H](CCCCN=[N+]=[N-])C(=O)NCCC(=O)N(C)CC(=O)N[C@H](C(=O)N[C@@H](Cc1ccccc1)C(=O)N[C@]1(C)CCCCCCC=CCCC[C@@](C)(C(=O)N[C@@H](CO)C(=O)N[C@@H](C)C(=O)N[C@@H](C)C(N)=O)NC(=O)[C@H](CC2CCC2)NC(=O)[C@H](CCC(N)=O)NC(=O)[C@H](C)NC(=O)[C@H](Cc2c[nH]c3ccccc23)NC(=O)[C@H](Cc2ccc(O)cc2)NC(=O)[C@H](CCC(=O)O)NC1=O)[C@@H](C)O [MP-799] (Ac-[Lys(N3)][βAla][Sar]TF[R8]EYWAQ[Cba][S5]SAA-NH2; staple 6-13) | 2.6 | 219 | 82.5 (≈ 159 µg/mL) | > 10000 | < 4.30 | – | – | – | – | – |
| CC(=O)N[C@@H](CCCCN=[N+]=[N-])C(=O)NCCC(=O)N[C@@H](CC(C)C)C(=O)N[C@H](C(=O)N[C@@H](Cc1ccccc1)C(=O)N[C@]1(C)CCCCCCC=CCCC[C@@](C)(C(=O)N[C@@H](CO)C(=O)N[C@@H](C)C(=O)N[C@@H](C)C(N)=O)NC(=O)[C@H](CC2CCC2)NC(=O)CNC(=O)[C@H](C)NC(=O)[C@H](Cc2c[nH]c3ccccc23)NC(=O)[C@H](Cc2ccc(O)cc2)NC(=O)[C@H](CCC(=O)O)NC1=O)[C@@H](C)O [MP-262] (Ac-[Lys(N3)][βAla]LTF[R8]EYWAG[Cba][S5]SAA-NH2; staple 6-13) | 2.85 | 207 | 87 (≈ 165 µg/mL) | 106 | < 4.30 | – | – | – | – | – |
| CC(=O)N[C@@H](CCCCN=[N+]=[N-])C(=O)NCCC(=O)N[C@@H](CC(C)C)C(=O)N[C@H](C(=O)N[C@@H](Cc1ccccc1)C(=O)N[C@]1(C)CCCCCCC=CCCC[C@@](C)(C(=O)N[C@@H](CO)C(=O)N[C@@H](C)C(=O)N[C@@H](C)C(N)=O)NC(=O)[C@H](CC2CCC2)NC(=O)[C@H](CCC(N)=O)NC(=O)[C@H](C)NC(=O)[C@H](C)NC(=O)[C@H](Cc2ccc(O)cc2)NC(=O)[C@H](CCC(=O)O)NC1=O)[C@@H](C)O [MP-893, AZIDE-ATSP-7041(W7A)] | 2.88 | 192 | 51 (≈ 94.6 µg/mL) | – | – | 1230 | 4.83 | 4.82 | – | – |
| CC(=O)N[C@@H](CCCCN=[N+]=[N-])C(=O)NCCC(=O)N[C@H](C)C(=O)N[C@H](C(=O)N[C@@H](Cc1ccccc1)C(=O)N[C@]1(C)CCCCCCC=CCCC[C@@](C)(C(=O)N[C@@H](CO)C(=O)N[C@@H](C)C(=O)N[C@@H](C)C(N)=O)NC(=O)[C@H](CC2CCC2)NC(=O)[C@H](CCC(N)=O)NC(=O)[C@H](C)NC(=O)[C@H](Cc2c[nH]c3ccccc23)NC(=O)[C@H](Cc2ccc(O)cc2)NC(=O)[C@H](CCC(=O)O)NC1=O)[C@@H](C)O [MP-7470] | 2.72 | 228 | 90 (≈ 174 µg/mL) | > 10000 | < 4.30 | – | – | – | – | – |
| CC(=O)N[C@@H](CCCCN=[N+]=[N-])C(=O)NCCC(=O)N[C@@H](CC(C)C)C(=O)N[C@H](C(=O)N[C@@H](Cc1ccccc1)C(=O)N[C@]1(C)CCCCCCC=CCCC[C@@](C)(C(=O)N[C@@H](CO)C(=O)N[C@@H](C)C(=O)N[C@@H](C)C(N)=O)NC(=O)[C@H](CC2CCC2)NC(=O)[C@H](CCC(N)=O)NC(=O)[C@H](C)NC(=O)[C@H](Cc2c[nH]c3ccccc23)NC(=O)[C@H](CCC(=O)O)NC(=O)[C@H](C)NC1=O)[C@@H](C)O [MP-029] (Ac-[Lys(N3)][βAla]LTF[R8]AEWAQ[Cba][S5]SAA-NH2; staple 6-13) | – | 182 | – | 70 | < 4.29 | – | – | – | Poorly Behaved | Poorly Behaved |
| CC(=O)N[C@@H](CCCCN=[N+]=[N-])C(=O)NCCC(=O)N[C@@H](CC(C)C)C(=O)N[C@@H](CCCCNC(=N)N)C(=O)N[C@@H](Cc1ccccc1)C(=O)N[C@]1(C)CCCCCCC=CCCC[C@@](C)(C(=O)N[C@@H](CO)C(=O)N[C@@H](C)C(=O)N[C@@H](C)C(N)=O)NC(=O)[C@H](CC2CCC2)NC(=O)[C@H](CCC(N)=O)NC(=O)[C@H](C)NC(=O)[C@H](Cc2c[nH]c3ccccc23)NC(=O)[C@H](Cc2ccc(O)cc2)NC(=O)[C@H](CCC(=O)O)NC1=O [MP-6897] (Ac-[Lys(N3)][βAla]L[hArg]F[R8]EYWAQ[Cba][S5]SAA-NH2; staple 6-13) | 2.94 | 210 | 9 (≈ 18.4 µg/mL) | 1510 | < 4.30 | – | – | – | – | – |
| CC(=O)N[C@@H](CCCCN=[N+]=[N-])C(=O)NCCC(=O)N[C@@H](CC(C)C)C(=O)N[C@H](C(=O)N[C@@H](Cc1ccccc1)C(=O)N[C@]1(C)CCCCCCC=CCCC[C@@](C)(C(=O)N[C@@H](CO)C(=O)N[C@H](C)C(=O)N[C@@H](C)C(N)=O)NC(=O)[C@H](CC2CCC2)NC(=O)[C@H](CCC(N)=O)NC(=O)[C@H](C)NC(=O)[C@H](Cc2c[nH]c3cc(Cl)ccc23)NC(=O)[C@H](Cc2ccc(O)cc2)NC(=O)[C@H](CCC(=O)O)NC1=O)[C@@H](C)O [MP-494] | 3.33 | 210 | 86.5 (≈ 173 µg/mL) | 706 | < 4.30 | – | – | – | – | – |
| CC(=O)N[C@@H](CCCCN=[N+]=[N-])C(=O)NCCC(=O)N[C@@H](CC(C)C)C(=O)N[C@H](C(=O)N[C@@H](Cc1ccccc1)C(=O)N[C@]1(C)CCCCCCC=CCCC[C@@](C)(C(=O)N[C@@H](CO)C(=O)N[C@@H](C)C(=O)N[C@@H](C)C(N)=O)NC(=O)[C@H](CC2CCC2)NC(=O)[C@H](CCC(N)=O)NC(=O)[C@H](C)NC(=O)[C@H](Cc2c[nH]c3ccccc23)NC(=O)[C@H](Cc2ccc(O)cc2)NC(=O)[C@@H](C)NC1=O)[C@@H](C)O [MP-473] (Ac-[Lys(N3)][βAla]LTF[R8][dA]YWAQ[Cba][S5]SAA-NH2; staple 6-13) | 3.49 | 213 | – | 197 | < 4.30 | – | – | – | – | Poorly Behaved |
| CC(=O)N[C@@H](CCCCN=[N+]=[N-])C(=O)NCCC(=O)N[C@@H](CC(C)C)C(=O)N[C@H](C(=O)N[C@@H](C)C(=O)N[C@]1(C)CCCCCCC=CCCC[C@@](C)(C(=O)N[C@@H](CO)C(=O)N[C@@H](C)C(=O)N[C@@H](C)C(N)=O)NC(=O)[C@H](CC2CCC2)NC(=O)[C@H](CCC(N)=O)NC(=O)[C@H](C)NC(=O)[C@H](Cc2c[nH]c3ccccc23)NC(=O)[C@H](Cc2ccc(O)cc2)NC(=O)[C@H](CCC(=O)O)NC1=O)[C@@H](C)O [MP-892, AZIDE-ATSP-7041 (F3A)] | 2.54 | 201 | 101 (≈ 191 µg/mL) | – | – | 465 | < 4.30 | < 4.30 | – | – |
| CC(=O)N[C@@H](CCCCN=[N+]=[N-])C(=O)NCCC(=O)N[C@@H](CC(C)C)C(=O)N[C@H](C(=O)N[C@@H](Cc1ccccc1)C(=O)N[C@]1(C)CCCCCCC=CCCC[C@@](C)(C(=O)N[C@H](C)C(=O)N[C@@H](C)C(=O)N[C@@H](C)C(N)=O)NC(=O)[C@H](CC2CCC2)NC(=O)[C@H](CCC(N)=O)NC(=O)[C@H](C)NC(=O)[C@H](Cc2c[nH]c3ccccc23)NC(=O)[C@H](Cc2ccc(O)cc2)NC(=O)[C@H](CCC(=O)O)NC1=O)[C@@H](C)O [MP-475] (Ac-[Lys(N3)][βAla]LTF[R8]EYWAQ[Cba][S5][dA]AA-NH2; staple 6-13) | 2.92 | 224 | 17 (≈ 33.2 µg/mL) | 155 | < 4.30 | – | – | – | – | – |
